Each structure is given as a SMILES string. Numbers after ± are expanded uncertainties.

These results are taken from the NIST ThermoML archive (doi:10.1016/j.tca.2012.09.040).

The nature of the series: of the first substance listed, at infinite dilution; xn = mol fraction of the nth substance listed. The conditions noted are these: 100 kPa, Liquid, isoperibol.

In the case of `CN(C)C=O` [dimethylformamide] + CCCCCCCCO, the partial molar enthalpy is, setting by setting: (298.15 K, x1 = 0) 1.35 ± 0.0263 kcal/mol; (318.15 K, x1 = 0) 1.22 ± 0.0239 kcal/mol.

In the case of `CCCCCCCCO` [octan-1-ol] + CN(C)C=O, the partial molar enthalpy came out at 1.55 ± 0.0311 kcal/mol (298.15 K, x2 = 1) and 1.52 ± 0.0311 kcal/mol (318.15 K, x2 = 1).
